Assay: Inhibition of recombinant human Cx26 expressed in Escherichia coli LB2003 assessed as reduction in cell growth measured after 18 hrs

Structure (SMILES) | IC50 [µM]
NC[C@H]1O[C@H](O[C@H]2[C@H](O)[C@@H](O[C@@H]3O[C@H](COCc4cccc5ccccc45)[C@@H](OCc4cccc5ccccc45)[C@H](N)[C@H]3O)[C@H](N)C[C@@H]2N)[C@H](O)[C@@H](O)[C@@H]1O | 6.6
CO[C@@H]1[C@@H](O[C@@H]2O[C@H](COCc3ccccc3)[C@@H](OCc3ccccc3)[C@H](N)[C@H]2OC)[C@H](N)C[C@H](N)[C@H]1O[C@H]1O[C@H](CN)[C@@H](OC)[C@H](OC)[C@H]1OC | 8.4
CCCCCCO[C@H]1[C@H](N)[C@@H](O)[C@H](O[C@@H]2[C@@H](O)[C@H](O[C@H]3O[C@H](CN)[C@@H](O)[C@H](O)[C@H]3O)[C@@H](N)C[C@H]2N)O[C@@H]1CO | 13.5
NC[C@H]1O[C@H](O[C@H]2[C@H](O)[C@@H](O[C@@H]3O[C@H](COCc4ccc5ccccc5c4)[C@@H](OCc4ccc5ccccc5c4)[C@H](N)[C@H]3O)[C@H](N)C[C@@H]2N)[C@H](O)[C@@H](O)[C@@H]1O | 4.9
NC[C@H]1O[C@H](O[C@H]2[C@H](O)[C@@H](O[C@@H]3O[C@H](COCc4cccc(-c5ccccc5)c4)[C@@H](OCc4cccc(-c5ccccc5)c4)[C@H](N)[C@H]3O)[C@H](N)C[C@@H]2N)[C@H](O)[C@@H](O)[C@@H]1O | 6.2
NC[C@H]1O[C@H](O[C@H]2[C@H](O)[C@@H](O[C@@H]3O[C@H](COCc4ccc(Cl)cc4)[C@@H](OCc4ccc(Cl)cc4)[C@H](N)[C@H]3O)[C@H](N)C[C@@H]2N)[C@H](O)[C@@H](O)[C@@H]1O | 2.5
CCCCCCOC[C@H]1O[C@@H](O[C@@H]2[C@@H](O)[C@H](O[C@H]3O[C@H](CN)[C@@H](O)[C@H](O)[C@H]3O)[C@@H](N)C[C@H]2N)[C@H](O)[C@@H](N)[C@@H]1OCCCCCC | 6.2
COc1ccc(COC[C@H]2O[C@@H](O[C@@H]3[C@@H](O)[C@H](O[C@H]4O[C@H](CN)[C@@H](O)[C@H](O)[C@H]4O)[C@@H](N)C[C@H]3N)[C@H](O)[C@@H](N)[C@@H]2OCc2ccc(OC)cc2)cc1 | 13
NC[C@H]1O[C@H](O[C@H]2[C@H](O)[C@@H](O[C@@H]3O[C@H](COCc4ccc(F)cc4)[C@@H](OCc4ccc(F)cc4)[C@H](N)[C@H]3O)[C@H](N)C[C@@H]2N)[C@H](O)[C@@H](O)[C@@H]1O | 8.1
Cc1ccc(COC[C@H]2O[C@@H](O[C@@H]3[C@@H](O)[C@H](O[C@H]4O[C@H](CN)[C@@H](O)[C@H](O)[C@H]4O)[C@@H](N)C[C@H]3N)[C@H](O)[C@@H](N)[C@@H]2OCc2ccc(C)cc2)cc1 | 4.3
CCCCCCCCCOC[C@H]1O[C@@H](O[C@@H]2[C@@H](O)[C@H](O[C@H]3O[C@H](CN)[C@@H](O)[C@H](O)[C@H]3O)[C@@H](N)C[C@H]2N)[C@H](O)[C@@H](N)[C@@H]1OCCCCCCCCC | 18.8
CCCCCCCCOC[C@H]1O[C@@H](O[C@@H]2[C@@H](O)[C@H](O[C@H]3O[C@H](CN)[C@@H](O)[C@H](O)[C@H]3O)[C@@H](N)C[C@H]2N)[C@H](O)[C@@H](N)[C@@H]1OCCCCCCCC | 13.6
CCCCOC[C@H]1O[C@@H](O[C@@H]2[C@@H](O)[C@H](O[C@H]3O[C@H](CN)[C@@H](O)[C@H](O)[C@H]3O)[C@@H](N)C[C@H]2N)[C@H](O)[C@@H](N)[C@@H]1OCCCC | 19
